Each structure is given as a SMILES string. Bridge positions count the residues as written; N and C are the ends. Square brackets hold non-standard residues; d marks the D form. Peptide text beside a SMILES is read from it. * marks the point of attachment. hPhe(3-Cl-4-CF3) = N[C@@H](CCc1ccc(C(F)(F)F)c(Cl)c1)C(=O)O; hPhe(3-F,4-CF3) = N[C@@H](CCc1ccc(C(F)(F)F)c(F)c1)C(=O)O; NMePhe(4-Cl) = CN[C@@H](Cc1ccc(Cl)cc1)C(=O)O; NMePhe(4-Me) = CN[C@@H](Cc1ccc(C)cc1)C(=O)O; NMePhe(2-Me) = CN[C@@H](Cc1ccccc1C)C(=O)O; NMeGly(cPent) = CN[C@H](C(=O)O)C1CCCC1; Phe(3-I) = N[C@@H](Cc1cccc(I)c1)C(=O)O; NMeY = CN[C@@H](Cc1ccc(O)cc1)C(=O)O; NMeCha = CN[C@@H](CC1CCCCC1)C(=O)O; NEtLeu = CCN[C@@H](CC(C)C)C(=O)O; NMeChg = CN[C@H](C(=O)O)C1CCCCC1; NMeI = CC[C@H](C)[C@H](NC)C(=O)O; NMeD = CN[C@@H](CC(=O)O)C(=O)O; NMeL = CN[C@@H](CC(C)C)C(=O)O; NMeV = CN[C@H](C(=O)O)C(C)C; d(β3hA) = C[C@@H](N)CC(=O)O; dIva = CC[C@@](C)(N)C(=O)O; NMeS = CN[C@@H](CO)C(=O)O; hSer = N[C@@H](CCO)C(=O)O; NMeA = CN[C@@H](C)C(=O)O; NMeAib = CNC(C)(C)C(=O)O; Piperidide = C1CCN(*)CC1; Pra = C#CC[C@H](N)C(=O)O; Ac5c = NC1(C(=O)O)CCCC1; Aze = O=C(O)[C@@H]1CCN1; CH2CMe2OH = CC(C)(O)C*; Aib = CC(C)(N)C(=O)O; Isopentyl = CC(C)CC*; CF3 = FC(F)(F)*; Sar = CNCC(=O)O

Experimental findings from patent publication US20240148821A1, “PHARMACEUTICAL USE OF CYCLIC PEPTIDE COMPOUND” (CHUGAI SEIYAKU KABUSHIKI KAISHA, priority 2021, published 2024) are described below.

In this assay the test system is Human pancreatic cancer cell line AsPC-1 (G12D mutation Kras). As to the kind of experiment: AsPC-1 cell growth inhibition (AsPC-1 CGI). The conditions noted are these: read-out: AsPC-1 cell growth inhibition, 50% growth inhibitory concentration (IC50 value); 96 hours, CellTiter-Glo, values classified in ranges. It counts as cell-based. On the technique in general: In ATP-based viability assays light output follows the ATP content of the culture.
Description: Test compounds were serially dilated with dimethyl sulfoxide, and 200 nL was then dispensed to a U-bottom 96-well plate using Labcyte Echo. […] The cell suspension was dispensed to a. plate containing a test compound at 100 μL per well and incubated at 37° C. in a 5% carbon dioxide gas incubator. 96 hours later, 80 μL of CellTiter-Glo (Promega) was added to each well and fluorescence was measured.
Consider `CC[C@H](C)[C@@H]1NC(=O)[C@H](CC(C)C)N(C)C(=O)C[C@@H](C(=O)N2CCCCC2)N(C)C(=O)[C@H](CC(C)C)N(C)C(=O)C(C)(C)NC(=O)[C@H](COCC(C)(C)O)N(C)C(=O)[C@H](CCc2ccc(C(F)(F)F)c(F)c2)NC(=O)CN(C)C(=O)[C@H](COCCC(C)C)N(C)C(=O)CN(C)C(=O)CN(C)C1=O` [Compound 1532] ([NMeL]I[Sar][Sar][NMeS](Isopentyl)[Sar][hPhe(3-F,4-CF3)][NMeS](CH2CMe2OH)[Aib][NMeL][NMeD]-Piperidide; lactam N-11), for which the IC50 was over 500 nM.

As for `CC[C@H](C)[C@@H]1NC(=O)[C@H](CC(C)C)N(C)C(=O)C[C@@H](C)NC(=O)[C@H](C(C)C)N(C)C(=O)[C@@](C)(CC)NC(=O)[C@@H]2CCCN2C(=O)[C@H](CCc2ccc(C(F)(F)F)c(Cl)c2)NC(=O)CN(C)C(=O)[C@H](CC2CCCCC2)N(C)C(=O)CN(C)C(=O)CN(C)C1=O` [Compound 275] (cyclo(I[Sar][Sar][NMeCha][Sar][hPhe(3-Cl-4-CF3)]P[dIva][NMeV][d(β3hA)][NMeL])), the IC50 is over 500 nM. Turning to `CC[C@H](C)[C@@H]1NC(=O)[C@H](CC(C)C)N(C)C(=O)C[C@@H](C(=O)N(C)C)N(C)C(=O)[C@H]([C@@H](C)CC)N(C)C(=O)C2(CCCC2)NC(=O)[C@H](COCCC(C)C)N(C)C(=O)[C@H](CCc2ccc(C(F)(F)F)c(Cl)c2)NC(=O)CN(C)C(=O)[C@H](Cc2ccc(C)cc2)N(C)C(=O)[C@@H]2CCN2C(=O)[C@H](C)N(C)C1=O` [Compound 27] ([NMeL]I[NMeA][Aze][NMePhe(4-Me)][Sar][hPhe(3-Cl-4-CF3)][NMeS](Isopentyl)[Ac5c][NMeI][NMeD]-NMe2; lactam N-11), the IC50 was at most 20 nM. For `C#CC[C@@H]1NC(=O)[C@H](Cc2cccc(I)c2)NC(=O)CN(C)C(=O)[C@H](Cc2ccc(OC(F)(F)F)cc2)N(C)C(=O)[C@@H]2CCN2C(=O)CN(C)C(=O)[C@H]([C@@H](C)CC)NC(=O)[C@H](CC(C)C)N(C)C(=O)C[C@@H](C(=O)N2CCCCC2)N(C)C(=O)[C@H](CC(C)C)NC(=O)C(C)(C)N(C)C1=O` [Compound 1298] ([NMeL]I[Sar][Aze][NMeY](CF3)[Sar][Phe(3-I)][Pra][NMeAib]L[NMeD]-Piperidide; lactam N-11) the value was over 500 nM.

Turning to `C#CC[C@@H]1NC(=O)[C@H](Cc2cccc(I)c2)NC(=O)CN(C)C(=O)[C@H](Cc2ccc(Cl)cc2)N(C)C(=O)CN(C)C(=O)CN(C)C(=O)[C@H]([C@@H](C)CC)NC(=O)[C@H](CC(C)C)N(C)C(=O)C[C@@H](C(=O)N2CCCCC2)N(C)C(=O)[C@H](CC(C)C)NC(=O)C(C)(C)N(C)C1=O` [Compound 1426] ([NMeL]I[Sar][Sar][NMePhe(4-Cl)][Sar][Phe(3-I)][Pra][NMeAib]L[NMeD]-Piperidide; lactam N-11), the IC50 was over 500 nM.

As for `CC[C@H](C)[C@@H]1NC(=O)[C@H](CC(C)C)N(C)C(=O)C[C@@H](C(=O)N(C)C)N(C)C(=O)[C@H](C2CCCC2)N(C)C(=O)C2(CCCC2)NC(=O)[C@@H](C)NC(=O)[C@H](CCc2ccc(C(F)(F)F)c(Cl)c2)NC(=O)CN(C)C(=O)[C@H](CC2CCCCC2)N(C)C(=O)[C@@H]2CCN2C(=O)[C@H](C)N(C)C1=O` [Compound 191] ([NMeL]I[NMeA][Aze][NMeCha][Sar][hPhe(3-Cl-4-CF3)][dA][Ac5c][NMeGly(cPent)][NMeD]-NMe2; lactam N-11), the IC50 was over 500 nM. Regarding `CC[C@H](C)[C@@H]1NC(=O)[C@H](CC(C)C)N(C)C(=O)C[C@@H](C(=O)N(C)C)N(C)C(=O)[C@H](C2CCCC2)N(C)C(=O)C2(CCCC2)NC(=O)[C@H](Cc2ccccc2C)N(C)C(=O)[C@H](CCc2ccc(C(F)(F)F)c(Cl)c2)NC(=O)CN(C)C(=O)[C@H](CC2CCCCC2)N(C)C(=O)[C@@H]2CCN2C(=O)[C@H](C)N(C)C1=O` [Compound 1880] ([NMeL]I[NMeA][Aze][NMeCha][Sar][hPhe(3-Cl-4-CF3)][NMePhe(2-Me)][Ac5c][NMeGly(cPent)][NMeD]-NMe2; lactam N-11), the IC50 is over 500 nM. For `COCC[C@@H]1NC(=O)[C@H](CC(C)C)N(C)C(=O)C[C@@H](C(=O)N2CCCCC2)N(C)C(=O)[C@H](C2CCCCC2)N(C)C(=O)C2(CCCC2)NC(=O)[C@@H]2CCCN2C(=O)[C@H](CCc2ccc(C(F)(F)F)c(Cl)c2)NC(=O)CN(C)C(=O)[C@H](CC2CCCCC2)N(C)C(=O)CN(C)C(=O)CN(C)C1=O` [Compound 941] ([NMeL][hSer](Me)[Sar][Sar][NMeCha][Sar][hPhe(3-Cl-4-CF3)]P[Ac5c][NMeChg][NMeD]-Piperidide; lactam N-11) the value was over 500 nM. `CC[C@H](C)[C@@H]1NC(=O)[C@H](CC(C)C)N(CC)C(=O)C[C@@H](C(=O)N(C)C)N(C)C(=O)[C@H](C2CCCC2)N(C)C(=O)C2(CCCC2)NC(=O)[C@@H]2CCCN2C(=O)[C@H](CCc2ccc(C(F)(F)F)c(Cl)c2)NC(=O)CN(C)C(=O)[C@H](Cc2ccc(C)cc2)N(C)C(=O)[C@@H]2CCN2C(=O)[C@H](C)N(C)C1=O` [Compound 1148] ([NEtLeu]I[NMeA][Aze][NMePhe(4-Me)][Sar][hPhe(3-Cl-4-CF3)]P[Ac5c][NMeGly(cPent)][NMeD]-NMe2; lactam N-11): the IC50 was at most 20 nM.
